Experimental data as given in patent US11306078B2, “Piperidine CXCR7 receptor modulators” (IDORSIA PHARMACEUTICALS LTD., priority 2016, dated 2022).

What follows are compounds tested against human chemokine receptor CXCR7 (Homo sapiens (Human), UniProt P25106) (assay: Tango CXCR7-bla U2OS beta-arrestin recruitment assay (beta-lactamase reporter, FRET), antagonism of CXCL12/SDF1-α). Settings: antagonistic effect on CXCR7; Tango CXCR7-bla U2OS cells, CXCL12/SDF1-α at its EC80.
Format: cell-based
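Note: compounds preincubated 15 min before CXCL12 addition, then 22 h at 37 °C, FRET emission ratio read with CCF4-AM substrate after 2 h.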

human chemokine receptor CXCR7, sequence (P25106 whole entry): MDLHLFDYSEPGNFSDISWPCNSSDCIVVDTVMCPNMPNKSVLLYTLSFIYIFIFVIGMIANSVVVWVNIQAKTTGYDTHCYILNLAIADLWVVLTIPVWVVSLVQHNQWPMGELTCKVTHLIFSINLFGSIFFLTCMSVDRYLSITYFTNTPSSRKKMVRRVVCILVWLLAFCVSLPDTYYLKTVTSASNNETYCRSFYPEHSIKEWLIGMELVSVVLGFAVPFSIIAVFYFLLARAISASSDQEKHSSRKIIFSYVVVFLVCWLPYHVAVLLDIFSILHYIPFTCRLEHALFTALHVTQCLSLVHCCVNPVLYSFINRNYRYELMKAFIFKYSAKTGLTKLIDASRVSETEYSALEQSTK

Q: How did the IC50 turn out when CN(CCc1ccccc1)C(=O)[C@@H]1CN(CCO)CC[C@H]1NC(=O)c1cc(-c2ccc(F)cc2F)on1 [Example 2.052] was run?
A: 267 nM

Q: For C[C@@H](NC(=O)[C@@H]1CN([C@@H]2CCCC[C@H]2O)CC[C@H]1NC(=O)c1cc(-c2ccc(F)cc2F)on1)c1ccccn1 [Example 2.053], which IC50 is on record?
A: 26 nM

Q: For C[C@H]([C@@H](C)O)N1CC[C@@H](NC(=O)c2cc(-c3ccc(F)cc3F)on2)[C@H](C(=O)N[C@H](C)c2ccccn2)C1 [Example 2.054], which IC50 is on record?
A: 138 nM

Q: With CN(CCc1ccccc1)C(=O)[C@@H]1CNCC[C@H]1NC(=O)c1cc(-c2ccc(F)cc2F)on1 [Example 2.058] as the compound, how does the IC50 read?
A: 347 nM

Q: How did the IC50 turn out when O=C(N[C@H]1CCN(CC2CC2)C[C@@H]1C(=O)NC1(c2cccc[n+]2[O-])CC1)c1cc(-c2ccc(F)cc2F)on1 [Example 2.061] was run?
A: 41 nM

Q: O=C(NC1CCN(C2CCCC2)CC1C(=O)NC1(c2cccc[n+]2[O-])CC1)c1cc(-c2ccc(F)cc2F)on1 (stereo not drawn) [Example 2.062] was tested. Which IC50 did it give?
A: 23 nM

Q: How did the IC50 turn out when O=C(N[C@@H]1CCN(C2CCCC2)C[C@H]1C(=O)NC1(c2cccc[n+]2[O-])CC1)c1cc(-c2ccc(F)cc2F)on1 [Example 2.062a] was run?
A: 298 nM

Q: O=C(N[C@H]1CCN(C2CCCC2)C[C@@H]1C(=O)NC1(c2cccc[n+]2[O-])CC1)c1cc(-c2ccc(F)cc2F)on1 [Example 2.062b] was tested. Which IC50 did it give?
A: 14 nM

Q: Which IC50 does the source give for O=C(N[C@H]1CCN(C2CCC2)C[C@@H]1C(=O)NC1(c2cccc[n+]2[O-])CC1)c1cc(-c2ccc(F)cc2F)on1 [Example 2.063] here?
A: 219 nM

Q: For N#CC1(NC(=O)[C@@H]2CN(C3CCCC3)CC[C@H]2NC(=O)c2cc(-c3ccc(F)cc3F)on2)CCC1 [Example 2.064], which IC50 is on record?
A: 84 nM

Q: With O=C(N[C@H]1CCN(CC2CCCC2)C[C@@H]1C(=O)NC1(c2ncccn2)CC1)c1cc(-c2ccc(F)cc2F)on1 [Example 2.065] as the compound, how does the IC50 read?
A: 1 nM

Q: How did the IC50 turn out when O=C(N[C@H]1CCN(CC2(C(F)F)CC2)C[C@@H]1C(=O)NC1(c2ncccn2)CC1)c1cc(-c2ccc(F)cc2F)on1 [Example 2.067] was run?
A: 18 nM

Q: O=C(N[C@H]1CCN(Cc2ccc(F)cc2)C[C@@H]1C(=O)NC1(c2ncccn2)CC1)c1cc(-c2ccc(F)cc2F)on1 [Example 2.068] was tested. Which IC50 did it give?
A: 12 nM

Q: For CC(C)(C)CN1CC[C@H](NC(=O)c2cc(-c3ccc(F)cc3F)on2)[C@@H](C(=O)NC2(c3ncccn3)CC2)C1 [Example 2.069], which IC50 is on record?
A: 6 nM

Q: O=C(N[C@H]1CCN(Cc2ccccc2)C[C@@H]1C(=O)NC1(c2ncccn2)CC1)c1cc(-c2ccc(F)cc2F)on1 [Example 2.071] was tested. Which IC50 did it give?
A: 8 nM

Q: With CCN(C)C(=O)[C@@H]1CN(C2CCCC2)CC[C@H]1NC(=O)c1cc(-c2ccc(F)cc2F)on1 [Example 2.076] as the compound, how does the IC50 read?
A: 71 nM

Q: For CCN(C)C(=O)[C@@H]1CN(CC2CC2)CC[C@H]1NC(=O)c1cc(-c2ccc(F)cc2F)on1 [Example 2.077], which IC50 is on record?
A: 112 nM

Q: CN(CCc1ccccn1)C(=O)[C@@H]1CN(C2CCCC2)CC[C@H]1NC(=O)c1cc(-c2ccc(F)cc2F)on1 [Example 2.078] was tested. Which IC50 did it give?
A: 72 nM

Q: Which IC50 does the source give for CN(CCc1ccccn1)C(=O)[C@@H]1CN(CC2CC2)CC[C@H]1NC(=O)c1cc(-c2ccc(F)cc2F)on1 [Example 2.079] here?
A: 38 nM

Q: For CN(C)C(=O)[C@@H]1CN(Cc2ccccc2)CC[C@H]1NC(=O)c1cc(-c2ccc(F)cc2F)on1 [Example 2.081], which IC50 is on record?
A: 118 nM

Q: For CN(C)C(=O)[C@@H]1CN(Cc2ccccc2Cl)CC[C@H]1NC(=O)c1cc(-c2ccc(F)cc2F)on1 [Example 2.082], which IC50 is on record?
A: 342 nM

Q: How did the IC50 turn out when CN(C)C(=O)[C@@H]1CN(Cc2ccccc2F)CC[C@H]1NC(=O)c1cc(-c2ccc(F)cc2F)on1 [Example 2.083] was run?
A: 777 nM

Q: O=C(N[C@H]1CCN(CC2CC2(F)F)C[C@@H]1C(=O)NC1(c2ncccn2)CC1)c1cc(-c2ccc(F)cc2F)on1 (stereo partly drawn) [Example 2.084] was tested. Which IC50 did it give?
A: 8 nM

Q: Which IC50 does the source give for CN(C)C(=O)[C@@H]1CN(Cc2ccn(C)c2)CC[C@H]1NC(=O)c1cc(-c2ccc(F)cc2F)on1 [Example 2.085] here?
A: 179 nM

Q: Which IC50 does the source give for O=C(N[C@H]1CCN(CC2CC2)C[C@@H]1C(=O)NC1(c2ccccn2)CC1)c1cn(-c2ccc(F)cc2F)nn1 [Example 2.091] here?
A: 62 nM

Q: Which IC50 does the source give for O=C(N[C@H]1CCN(C2CCCC2)C[C@@H]1C(=O)NC1(c2ccccn2)CC1)c1cn(-c2ccc(F)cc2F)nn1 [Example 2.092] here?
A: 95 nM

Q: C=CCN1CC[C@H](NC(=O)c2cc(-c3ccc(F)cc3F)on2)[C@@H](C(=O)NC2(c3ncccn3)CC2)C1 [Example 2.093] was tested. Which IC50 did it give?
A: 26 nM

Q: O=C(N[C@H]1CCN(C2CC3CC3C2)C[C@@H]1C(=O)NC1(c2ncccn2)CC1)c1cc(-c2ccc(F)cc2F)on1 (stereo partly drawn) [Example 2.094] was tested. Which IC50 did it give?
A: 2 nM

Q: For O=C(N[C@H]1CCNC[C@@H]1C(=O)NC1(c2ncccn2)CC1)c1ncc(-c2ccc(F)cc2F)o1 [Example 2.096], which IC50 is on record?
A: 634 nM

Q: How did the IC50 turn out when O=C(N[C@H]1CCN(C2CCC2)C[C@@H]1C(=O)NC1(c2ncccn2)CC1)c1ncc(-c2ccc(F)cc2F)o1 [Example 2.097] was run?
A: 650 nM

Q: Which IC50 does the source give for O=C(N[C@H]1CCN(C2CCCC2)C[C@@H]1C(=O)NC1(c2ncccn2)CC1)c1ncc(-c2ccc(F)cc2F)o1 [Example 2.098] here?
A: 94 nM

Q: With CC(C)N1CC[C@H](NC(=O)c2ncc(-c3ccc(F)cc3F)o2)[C@@H](C(=O)NC2(c3ncccn3)CC2)C1 [Example 2.099] as the compound, how does the IC50 read?
A: 343 nM

Q: How did the IC50 turn out when O=C(N[C@H]1CCN(CC2CC(F)(F)C2)C[C@@H]1C(=O)NC1(c2ncccn2)CC1)c1cc(-c2ccc(F)cc2F)on1 [Example 2.101] was run?
A: 29 nM

Q: How did the IC50 turn out when O=C(N[C@H]1CCN(C2CSC2)C[C@@H]1C(=O)NC1(c2ncccn2)CC1)c1cc(-c2ccc(F)cc2F)on1 [Example 2.102] was run?
A: 411 nM

Q: How did the IC50 turn out when O=C(N[C@H]1CCN(C2CC3(CC3)C2)C[C@@H]1C(=O)NC1(c2ncccn2)CC1)c1cc(-c2ccc(F)cc2F)on1 [Example 2.103] was run?
A: 4 nM

Q: O=C(N[C@H]1CCNC[C@@H]1C(=O)NC1(c2ncccn2)CC1)c1nnc(-c2ccc(F)cc2F)s1 [Example 2.104] was tested. Which IC50 did it give?
A: 195 nM

Q: Which IC50 does the source give for O=C(N[C@H]1CCN(C2CCC2)C[C@@H]1C(=O)NC1(c2ncccn2)CC1)c1nnc(-c2ccc(F)cc2F)s1 [Example 2.105] here?
A: 60 nM

Q: For O=C(N[C@H]1CCN(CC2(F)CC2)C[C@@H]1C(=O)NC1(c2ncccn2)CC1)c1nnc(-c2ccc(F)cc2F)s1 [Example 2.106], which IC50 is on record?
A: 13 nM

Q: With CCN1CC[C@H](NC(=O)c2nnc(-c3ccc(F)cc3F)s2)[C@@H](C(=O)NC2(c3ncccn3)CC2)C1 [Example 2.107] as the compound, how does the IC50 read?
A: 114 nM

Q: With O=C(N[C@@H]1CCN(C2CCCCC2)C[C@H]1C(=O)NC1(c2ccccn2)CC1)c1noc(-c2ccc(F)cc2F)n1 [Example 3.01] as the compound, how does the IC50 read?
A: 69 nM

Q: For CC1(NC(=O)[C@H]2CN(C3CCCCC3)CC[C@@H]2NC(=O)c2cc(-c3ccc(F)cc3F)on2)CC1 [Example 4.001, (3S,4S)-1-Cyclohexyl-4-{[5-(2,4-difluoro-phenyl)-isoxazole-3-carbonyl]-amino}-piperidine-3-carboxylic Acid (1-methyl-cyclopropyl)-amide], which IC50 is on record?
A: 133 nM

Q: With COCC(C)(C)NC(=O)[C@H]1CN(C2CCCCC2)CC[C@@H]1NC(=O)c1cc(-c2ccc(F)cc2F)on1 [Example 4.002] as the compound, how does the IC50 read?
A: 60 nM

Q: Which IC50 does the source give for COCCC(C)(C)NC(=O)[C@H]1CN(C2CCCCC2)CC[C@@H]1NC(=O)c1cc(-c2ccc(F)cc2F)on1 [Example 4.003] here?
A: 333 nM

Q: With O=C(N[C@H]1CCN(C2CCCCC2)C[C@@H]1C(=O)NC1(c2ccc(F)cn2)CC1)c1cc(-c2ccc(F)cc2F)on1 [Example 4.004] as the compound, how does the IC50 read?
A: 319 nM

Q: With CC(NC(=O)[C@H]1CN(C2CCCC2)CC[C@@H]1NC(=O)c1cc(-c2ccc(F)cc2F)on1)c1ccon1 (stereo partly drawn) [Example 4.04] as the compound, how does the IC50 read?
A: 86 nM
